Laboratory results taken from patent US20180148418A1, “AMIDO-SUBSTITUTED CYCLOHEXANE DERIVATIVES” (Bayer Pharma Aktiengesellschaft, priority 2015, published 2018).
pIC50: −log10 of the molar value.

What follows are compounds tested on wildtype Wnt signaling cascade (assay: HEK293 TOP assay (Super TopFlash luciferase reporter, Wnt-3a stimulated)). Conditions: HEK293 TOP reporter cells, Wnt3a at EC50, 16 hours.
Assay type: cell-based
How it was run: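 HEK293 cells stably carrying Super TopFlash (TOP) run in parallel with FOP cells, 10000/well plated 24 h ahead, stimulated with recombinant human Wnt-3a. Compounds tested 50 μM to 15 nM in 3.16-fold steps in CAFTY buffer pH 7.4 with 2 mM Ca^2+ and 0.01% BSA; luciferase read-out.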

SMILES | pIC50
Cc1c(C(C)N(C)C)cnc2c(C(=O)N[C@H]3CC[C@H](C(=O)Nc4ccc(F)cc4Cl)CC3)cnn12 (single isomer, unassigned) [Example 57, N-{trans-4-[(2-chloro-4-fluorophenyl)carbamoyl]cyclohexyl}-6-[1-(dimethylamino)ethyl]-7-methylpyrazolo[1,5-a]pyrimidine-3-carboxamide] | 6.51

Same assay, conditions: Homo sapiens, HEK293, 16 h, HEK293 TOP reporter cells, Wnt3a at EC50, 16 hours

SMILES | pIC50
Cc1cc(NC(=O)[C@H]2CC[C@H](NC(=O)c3cnn4cccnc34)CC2)c(Cl)cc1F [Example 150, N-{trans-4-[(2-chloro-4-fluoro-5-methylphenyl)carbamoyl]cyclohexyl}pyrazolo[1,5-a]pyrimidine-3-carboxamide] | 7.10
COCc1cc(C)n2ncc(C(=O)N[C@H]3CC[C@H](C(=O)Nc4ccc(F)cc4Cl)CC3)c2n1 [Example 110, N-{trans-4-[(2-chloro-4-fluorophenyl)carbamoyl]cyclohexyl}-5-(methoxymethyl)-7-methylpyrazolo[1,5-a]pyrimidine-3-carboxamide] | 6.57
CNC(=O)c1nc[nH]c1C(=O)N[C@H]1CC[C@H](C(=O)Nc2cc(F)c(F)cc2Cl)CC1 [Example 3, N^5-{trans-4-[(2-chloro-4,5-difluorophenyl)carbamoyl]cyclohexyl}-N^4-methyl-1H-imidazole-4,5-dicarboxamide] | 7.89
COC(C)(C)CNC(=O)c1nc[nH]c1C(=O)N[C@H]1CC[C@H](C(=O)Nc2cnccc2Cl)CC1 [Example 98, N^5-{trans-4-[(4-chloropyridin-3-yl)carbamoyl]cyclohexyl}-N^4-(2-methoxy-2-methylpropyl)-1H-imidazole-4,5-dicarboxamide] | 6.24
CNC(=O)c1nc[nH]c1C(=O)N[C@H]1CC[C@H](C(=O)N(CCO)c2ccc(F)cc2Cl)CC1 [Example 157, N^5-{trans-4-[(2-chloro-4-fluorophenyl)(2-hydroxyethyl)carbamoyl]cyclohexyl}-N^4-methyl-1H-imidazole-4,5-dicarboxamide] | 5.08
CN(c1ccc(F)cc1Cl)C(=O)[C@H]1CC[C@H](NC(=O)c2cnn3cccnc23)CC1 [Example 155, N-{trans-4-[(2-chloro-4-fluorophenyl)(methyl)carbamoyl]cyclohexyl}pyrazolo[1,5-a]pyrimidine-3-carboxamide] | 6.89
O=C(N[C@H]1CC[C@H](C(=O)Nc2ccc(F)cc2Cl)CC1)c1cnn2ccc(N3CCOCC3)nc12 [Example 107, N-{trans-4-[(2-chloro-4-fluorophenyl)carbamoyl]cyclohexyl}-5-(morpholin-4-yl)pyrazolo[1,5-a]pyrimidine-3-carboxamide] | 6.06
O=C(N[C@H]1CC[C@H](C(=O)Nc2c(F)cc(F)cc2Cl)CC1)c1cnc2cccnn12 [Example 133, N-{trans-4-[(2-chloro-4,6-difluorophenyl)carbamoyl]cyclohexyl}imidazo[1,2-b]pyridazine-3-carboxamide] | 6.54
CNC(=O)c1[nH]cnc1C(=O)N[C@H]1CC[C@@]2(CCN(c3ccc(F)cc3Cl)C2=O)CC1 [Example 140, N^4-[(trans)-2-(2-chloro-4-fluorophenyl)-1-oxo-2-azaspiro[4.5]dec-8-yl]-N^5-methyl-1H-imidazole-4,5-dicarboxamide] | 9.07
O=C(N[C@H]1CC[C@H](C(=O)Nc2ccc(F)cc2Cl)CC1)c1cnn2ccc(N3CCCC3)nc12 [Example 108] | 6.74
O=C(NCC(F)(F)F)c1nc[nH]c1C(=O)N[C@H]1CC[C@H](C(=O)Nc2cc(N3CCOCC3)ccc2Cl)CC1 [Example 95, N^5-(trans-4-{[2-chloro-5-(morpholin-4-yl)phenyl]carbamoyl}cyclohexyl)-N^4-(2,2,2-trifluoroethyl)-1H-imidazole-4,5-dicarboxamide] | 5.68
CC(C)(O)CNC(=O)c1nc[nH]c1C(=O)N[C@H]1CC[C@H](C(=O)Nc2cc(C(F)(F)F)ccc2Cl)CC1 [Example 145, N^5-(trans-4-{[2-chloro-5-(trifluoromethyl)phenyl]carbamoyl}cyclohexyl)-N^4-(2-hydroxy-2-methylpropyl)-1H-imidazole-4,5-dicarboxamide] | 6.82
O=C(N[C@H]1CC[C@H](C(=O)Nc2cc(F)c(F)cc2Cl)CC1)c1cnn2cccnc12 [Example 130, N-{trans-4-[(2-chloro-4,5-difluorophenyl)carbamoyl]cyclohexyl}pyrazolo[1,5-a]pyrimidine-3-carboxamide] | 7.66
O=C(N[C@H]1CC[C@]2(CCN(c3ccc(F)cc3Cl)C2=O)CC1)c1cnn2cccnc12 [Example 148, N-[(cis)-2-(2-chloro-4-fluorophenyl)-1-oxo-2-azaspiro[4.5]dec-8-yl]pyrazolo[1,5-a]pyrimidine-3-carboxamide] | 6.85
CN(c1ccccc1)C(=O)[C@H]1CC[C@H](NC(=O)c2cnn3cccnc23)CC1 [Example 156, N-{trans-4-[methyl(phenyl)carbamoyl]cyclohexyl}pyrazolo[1,5-a]pyrimidine-3-carboxamide] | 6.72

Next, values leading:

pIC50 | SMILES
6.72 | O=C(N[C@H]1CC[C@H](C(=O)Nc2cnc(C(F)(F)F)cc2Cl)CC1)c1cnn2cccnc12 [Example 149, N-(trans-4-{[4-chloro-6-(trifluoromethyl)pyridin-3-yl]carbamoyl}cyclohexyl)pyrazolo[1,5-a]pyrimidine-3-carboxamide]
6.62 | O=C(N[C@H]1CC[C@H](C(=O)Nc2ccncc2Cl)CC1)c1cnn2cccnc12 [Example 105, N-{trans-4-[(3-chloropyridin-4-yl)carbamoyl]cyclohexyl}pyrazolo[1,5-a]pyrimidine-3-carboxamide]
7.03 | Cc1nc2c(C(=O)N[C@H]3CC[C@H](C(=O)Nc4ccc(F)cc4Cl)CC3)cnn2c2c1CCC2 [Example 113, N-{trans-4-[(2-chloro-4-fluorophenyl)carbamoyl]cyclohexyl}-5-methyl-7,8-dihydro-6H-cyclopenta[e]pyrazolo[1,5-a]pyrimidine-3-carboxamide]
7.27 | CNC(=O)c1nc[nH]c1C(=O)N[C@H]1CC[C@H](C(=O)Nc2ncncc2Cl)CC1 [Example 147, N^5-{trans-4-[(5-chloropyrimidin-4-yl)carbamoyl]cyclohexyl}-N^4-methyl-1H-imidazole-4,5-dicarboxamide]
9.16 | O=C(N[C@H]1CC[C@@]2(CCN(c3ccc(F)cc3Cl)C2=O)CC1)c1[nH]cnc1C(=O)N1CC(F)C1 [Example 166, N-[(trans)-2-(2-chloro-4-fluorophenyl)-1-oxo-2-azaspiro[4.5]dec-8-yl]-4-[(3-fluoroazetidin-1-yl)carbonyl]-1H-imidazole-5-carboxamide]
6.33 | Cc1cc(NC(=O)C23CCC(NC(=O)c4cnc5cccnn45)(CC2)CC3)c(Cl)cc1F [Example 122, N-{4-[(2-chloro-4-fluoro-5-methylphenyl)carbamoyl]bicyclo[2.2.2]oct-1-yl}imidazo[1,2-b]pyridazine-3-carboxamide]
6.60 | COC(C)(C)CNC(=O)c1nc[nH]c1C(=O)N[C@H]1CC[C@H](C(=O)Nc2cc(C(F)(F)F)ccc2Cl)CC1 [Example 144, N^5-(trans-4-{[2-chloro-5-(trifluoromethyl)phenyl]carbamoyl}cyclohexyl)-N^4-(2-methoxy-2-methylpropyl)-1H-imidazole-4,5-dicarboxamide]
8.62 | COCCNC(=O)c1nc[nH]c1C(=O)N[C@H]1CC[C@@]2(CCN(c3ccc(F)cc3Cl)C2=O)CC1 [Example 163, N^5-[(trans)-2-(2-chloro-4-fluorophenyl)-1-oxo-2-azaspiro[4.5]dec-8-yl]-N^4-(2-methoxyethyl)-1H-imidazole-4,5-dicarboxamide]
6.44 | COC(C)(C)CNC(=O)c1nc[nH]c1C(=O)N[C@H]1CC[C@H](C(=O)Nc2cc(C)c(F)cc2Cl)CC1 [Example 101, N^5-{trans-4-[(2-chloro-4-fluoro-5-methylphenyl)carbamoyl]cyclohexyl}-N^4-(2-methoxy-2-methylpropyl)-1H-imidazole-4,5-dicarboxamide]
7.14 | COCc1cc(C)nc2c(C(=O)N[C@H]3CC[C@H](C(=O)Nc4ccc(F)cc4Cl)CC3)cnn12 [Example 111, N-{trans-4-[(2-chloro-4-fluorophenyl)carbamoyl]cyclohexyl}-7-(methoxymethyl)-5-methylpyrazolo[1,5-a]pyrimidine-3-carboxamide]
6.85 | Cc1cc(C)n2ncc(C(=O)N[C@H]3CC[C@H](C(=O)Nc4cc(F)c(F)cc4Cl)CC3)c2n1 [Example 134, N-{trans-4-[(2-chloro-4,5-difluorophenyl)carbamoyl]cyclohexyl}-5,7-dimethylpyrazolo[1,5-a]pyrimidine-3-carboxamide]
6.72 | Cc1cc(C)n2ncc(C(=O)NC34CCC(C(=O)Nc5cc(C)c(F)cc5Cl)(CC3)CC4)c2n1 [Example 126, N-{4-[(2-chloro-4-fluoro-5-methylphenyl)carbamoyl]bicyclo[2.2.2]oct-1-yl}-5,7-dimethylpyrazolo[1,5-a]pyrimidine-3-carboxamide]
6.70 | Cc1cc(NC(=O)[C@H]2CC[C@H](NC(=O)c3[nH]cnc3C(=O)NCC(C)(C)O)CC2)c(Cl)cc1F [Example 100, N^5-{trans-4-[(2-chloro-4-fluoro-5-methylphenyl)carbamoyl]cyclohexyl}-N^4-(2-hydroxy-2-methylpropyl)-1H-imidazole-4,5-dicarboxamide]
8.04 | COCC(C)NC(=O)c1nc[nH]c1C(=O)N[C@H]1CC[C@@]2(CCN(c3ccc(F)cc3Cl)C2=O)CC1 (mixture of isomers) [Example 164, N^5-[(trans)-2-(2-chloro-4-fluorophenyl)-1-oxo-2-azaspiro[4.5]dec-8-yl]-N^4-(1-methoxypropan-2-yl)-1H-imidazole-4,5-dicarboxamide]
6.66 | COCC(C)NC(=O)c1nc[nH]c1C(=O)N[C@H]1CC[C@H](C(=O)Nc2cc(C(F)(F)F)ccc2Cl)CC1 (stereo partly drawn) [Example 143, N^5-(trans-4-{[2-chloro-5-(trifluoromethyl)phenyl]carbamoyl}cyclohexyl)-N^4-(1-methoxypropan-2-yl)-1H-imidazole-4,5-dicarboxamide]
